deltaTm data for four compounds are collected here from ChEMBL document CHEMBL5550200, “Back-Pocket Optimization of 2-Aminopyrimidine-Based Macrocycles Leads to Potent EPHA2/GAK Kinase Inhibitors” (J Med Chem, 2024).

The target of the assay is T1, Cyclin-G-associated kinase (Homo sapiens) (UniProt O14976).
T1 sequence (whole entry): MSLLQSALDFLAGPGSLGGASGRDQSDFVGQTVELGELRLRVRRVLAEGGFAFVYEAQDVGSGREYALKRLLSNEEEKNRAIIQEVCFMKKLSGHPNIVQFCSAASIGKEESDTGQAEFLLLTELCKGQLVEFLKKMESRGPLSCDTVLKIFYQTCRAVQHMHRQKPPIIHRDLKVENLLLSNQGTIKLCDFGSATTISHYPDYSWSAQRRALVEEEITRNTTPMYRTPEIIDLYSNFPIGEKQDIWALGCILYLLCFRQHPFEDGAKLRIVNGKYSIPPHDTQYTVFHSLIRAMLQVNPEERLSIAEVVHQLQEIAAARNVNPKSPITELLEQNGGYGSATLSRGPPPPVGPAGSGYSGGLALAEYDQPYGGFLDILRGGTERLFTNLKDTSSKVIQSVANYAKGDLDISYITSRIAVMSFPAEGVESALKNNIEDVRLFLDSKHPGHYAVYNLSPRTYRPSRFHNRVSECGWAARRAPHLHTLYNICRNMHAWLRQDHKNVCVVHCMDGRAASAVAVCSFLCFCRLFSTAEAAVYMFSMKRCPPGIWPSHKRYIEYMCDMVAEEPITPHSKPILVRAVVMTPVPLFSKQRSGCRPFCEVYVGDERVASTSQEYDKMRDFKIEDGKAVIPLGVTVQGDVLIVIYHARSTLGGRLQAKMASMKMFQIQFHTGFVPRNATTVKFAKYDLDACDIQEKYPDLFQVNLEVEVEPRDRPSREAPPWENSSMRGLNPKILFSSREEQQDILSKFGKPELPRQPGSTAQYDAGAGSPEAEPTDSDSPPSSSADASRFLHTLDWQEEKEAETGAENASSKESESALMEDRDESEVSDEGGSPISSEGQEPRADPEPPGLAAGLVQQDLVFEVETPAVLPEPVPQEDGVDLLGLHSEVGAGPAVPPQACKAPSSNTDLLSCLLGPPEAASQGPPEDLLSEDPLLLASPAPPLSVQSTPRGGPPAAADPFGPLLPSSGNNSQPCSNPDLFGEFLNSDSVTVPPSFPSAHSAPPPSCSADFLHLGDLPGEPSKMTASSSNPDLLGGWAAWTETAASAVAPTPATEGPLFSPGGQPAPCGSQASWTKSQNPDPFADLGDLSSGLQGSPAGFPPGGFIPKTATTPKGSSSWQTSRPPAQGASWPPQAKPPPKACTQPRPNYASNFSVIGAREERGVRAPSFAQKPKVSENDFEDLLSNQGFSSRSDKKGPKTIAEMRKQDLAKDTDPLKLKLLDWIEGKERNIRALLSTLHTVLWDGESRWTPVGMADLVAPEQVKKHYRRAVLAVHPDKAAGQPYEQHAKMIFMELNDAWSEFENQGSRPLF
Description: Induction of stabilization of recombinant GAK (unknown origin) assessed as change in melting temperature by differential scanning fluorimetry assay
`O=S1(=O)NCCCNc2nc(ncc2-c2ccc(Cl)c(Cl)c2)Nc2cccc1c2`: the deltaTm is 3.6 K.

On to `COc1c(F)ccc(-c2cnc3nc2NCCCNS(=O)(=O)c2cccc(c2)N3)c1F`, for which the deltaTm amounted to 6.8 K.

`COc1cc(-c2cnc3nc2NCCCNS(=O)(=O)c2cccc(c2)N3)c(F)cc1F` yielded a deltaTm of 7.3 K.

Take `COc1cc(-c2cnc3nc2NCCCNS(=O)(=O)c2cc(ccc2O)N3)ccc1F`: the deltaTm turned out to be 8 K.
